Counter-ions that a name gives are not always drawn. Like-named read-outs stand apart in the source and are kept apart here.
What was measured:
[1] = Determination of the lethal dose in mice after acute administration; conditions: mouse, in vivo, po, administered orally, read-out: Percent toxicity (percentage of animals which die within 72 hours)
Protocol: The products were administered orally to groups of 5 female CDI Charles River mice weighing between 20 and 24 g. They were solubilized in 0.1N HCl. The toxicity was recorded for 72 hours following the administration of the products.
The results, expressed as the percentage of animals which die within 72 hours following oral administration of the products, are given in the table above.

[2] = test system: convulsions induced by an electric shock; test: Antagonism towards the convulsions induced by an electric shock; format: in vivo; conditions: Mus musculus, po, 1 h; mice, administered orally 60 minutes before the electric shock; confidence limits in brackets (p ≤ 0.05); read-out: Median effective dose (ED50) for antagonism towards electric shock
Protocol: (§1) The anticonvulsant effect of the products on mice was evaluated on a model involving convulsions caused by an electric shock and on a model involving convulsions induced by a chemical agent: bicuculline.
The test was a slightly modified version of that of SWINYARD et al. [Journal of Pharmacology and Experimental Therapeutics 106, 319-330 (1952)] and ASAMI et al. [Arzneimittel Forschung 24(10), 1563-1568 (1974)]. The equipment consisted of a Racia shock generator fitted with 2 ocular electrodes delivering a current at 12.5 volts for 0.3 second. The groups consisted of 10 CDI Charles River mice weighing between 20 and 24 g.
The products were administered orally 60 minutes before the electric shock.

[3] = test system: mortality following the injection of collagen; test: Antithrombotic activity, mortality following the injection of collagen; format: in vivo; conditions: mice, 200 mg/kg, administered orally
bicuculline = test: Antagonism towards the convulsions and the mortality caused by bicuculline; format: in vivo, mice; conditions: Mus musculus, po, 1 h
Protocol: as §1
The groups consisted of 10 CDI Charles River mice weighing between 20 and 22 g. The products were administered orally 60 minutes before the bicuculline (0.8 mg/kg, administered intravenously).

[4] = test system: contortional movements caused by the administration of acetic acid; test: Analgesic activity, KOSTER test (acetic acid contortions); format: in vivo; conditions: mice, 25 mg/kg administered orally 30 minutes before i.p. acetic acid
Protocol: The analgesic activity of the products according to the invention was evaluated using the KOSTER test (Federation Proceeding 18, 41 (1959)).
The products were administered orally to mice 30 minutes before the intraperitoneal injection of 0.25 ml of 0.1N acetic acid dissolved in 10% gum arabic. The contortions between the fifth and tenth minute and between the fifteenth and twentieth minute after administration of the acid were counted for the control animals and the treated animals.

[5] = read-out: Median effective dose (ED50) for antagonism towards bicuculline, Mortality
[6] = read-out: Median effective dose (ED50) for antagonism towards bicuculline, Tonic convulsions

SMILES	mortality at 72 h ([1]; 250 mg/kg)	mortality at 72 h ([1]; 500 mg/kg)	mortality at 72 h ([1]; 1000 mg/kg)	ED50 [2]	Protection from mortality following the injection of collagen [3]	ED50 (bicuculline; [5])	ED50 (bicuculline; [6])	Antagonism towards the contortional movements (percent/control animals) [4]
OC1CCN(c2ncc(-c3ccccc3Cl)nn2)CC1 [SR 42 524, 6-(2-Chlorophenyl)-3-(4-hydroxypiperidino)-1,2,4-triazine]	0%	0%	0%	24 mg/kg	protected mice from mortality following the injection of collagen	72 mg/kg	71 mg/kg	
OC1CCN(c2ncc(-c3cccc4ccccc34)cn2)CC1 [SR 43 139, 5-(naphthyl-1)-2-(4-hydroxypiperidino)pyrimidine]	0%	0%	0%	43 mg/kg		44 mg/kg	46 mg/kg	
COc1ccc(-c2cnc(N3CCC(O)CC3)nc2)cc1 [SR 43 159, 5-(4-methoxyphenyl)-2-(4-hydroxypiperidino)pyrimidine]	0%	0%	0%	83 mg/kg		60 mg/kg	70 mg/kg	
OC1CCN(c2cnc(-c3cccc(Cl)c3)nn2)CC1 [SR 42 904, 3-(3-Chlorophenyl)-6-(4-hydroxypiperidino)-1,2,4-triazine]	0%	0%		59 mg/kg				
O=C1CCN(c2ncc(-c3ccc(Cl)cc3Cl)nn2)CC1 [SR 42 826, 6-(2,4-Dichlorophenyl)-3-(4-oxopiperidino)-1,2,4-triazine]	0%	20%		26 mg/kg		3.4 mg/kg	3.2 mg/kg	-42%
OC1CCN(c2ccc(-c3ccc(Cl)cc3Cl)cn2)CC1 [SR 42 903, 5-(2,4-Dichlorophenyl)-2-(4-hydroxypiperidino)pyridine]				28 mg/kg				
CN(C)C(=O)OC1CCN(c2ncc(-c3ccc(Cl)cc3Cl)cn2)CC1 [SR 43 539, 2-(4-Dimethylcarbamoyloxypiperidino)-5-(2,4-dichlorophenyl)pyrimidine]				2.5 mg/kg		0.7 mg/kg	1.1 mg/kg	
CN(C)C(=O)OC1CCN(c2ncc(-c3ccccc3Cl)cn2)CC1 [SR 43 537, 2-(4-dimethylcarbamoyloxypiperidino)-5-(2-chlorophenyl)pyrimidine]				2.5 mg/kg		3 mg/kg	3.3 mg/kg	
OC1CCN(c2ncc(-c3ccc(Cl)cc3Cl)nn2)CC1 [SR 42 825, 6-(2,4-Dichlorophenyl)-3-(4-hydroxypiperidino)-1,2,4-triazine]	20%	20%	80%	16 mg/kg		3.3 mg/kg	3.1 mg/kg	-57%
OC1CCN(c2ncc(-c3ccccc3Cl)cn2)CC1 [SR 42 505, 5-(2-Chlorophenyl)-2-(4-hydroxypiperidino)pyrimidine]	0%	0%	80%	42 mg/kg		54 mg/kg	52 mg/kg	-36%
CC(=O)OC1CCN(c2ncc(-c3ccc(Cl)cc3Cl)cn2)CC1 [SR 43 651, 2-(4-Acetoxypiperidino)-5-(2,4-dichlorophenyl)pyrimidine]				43 mg/kg		15.5 mg/kg	17.2 mg/kg	
CNC(=O)OC1CCN(c2ncc(-c3ccccc3Cl)cn2)CC1 [SR 43 543, 2-(4-Methylcarbamoyloxypiperidino)-5-(2-chlorophenyl)pyrimidine]	0%	0%	20%	19 mg/kg		3.9 mg/kg	4.3 mg/kg	
O=C1CCN(c2ccc(-c3ccccc3Cl)cn2)CC1 [SR 42 696, 5-(2-Chlorophenyl)-2-(4-oxopiperidino)pyridine acid maleate]	0%	0%						
OC1CCN(c2cnc(-c3ccc(Cl)cc3)nn2)CC1 [SR 42 833, 3-(4-Chlorophenyl)-6-(4-hydroxypiperidino)-1,2,4-triazine]	0%	0%						-31%
O=C(OC1CCN(c2ncc(-c3ccccc3Cl)cn2)CC1)N1CCC(O)CC1 [SR 43 516, 2-[4-(4-hydroxypiperidinocarbonyloxy)piperidino]-5-(2-chlorophenyl)pyrimidine]	0%	0%	0%	91 mg/kg				
OC1CCN(c2ncc(-c3ccc(Cl)cc3Cl)cn2)CC1 [SR 42 824, 5-(2,4-dichlorophenyl)-2-(4-hydroxypiperidino)pyrimidine]	0%	0%		20 mg/kg		8 mg/kg	9.4 mg/kg	-80%
O=C1CCN(c2ncc(-c3ccccc3Cl)nn2)CC1 [SR 42 642, 6-(2-Chlorophenyl)-3-(4-oxopiperidino)-1,2,4-triazine]	0%	0%		40 mg/kg				
OC1CCN(c2ncc(-c3ccc(Cl)cc3)cn2)CC1 [SR 42 921, 5-(4-chlorophenyl)-2-(4-hydroxypiperidino)pyrimidine]	0%	0%						
OC1CCN(c2ccc(-c3ccccc3Cl)cn2)CC1 [SR 42 482, 5-(2-Chlorophenyl)-2-(4-hydroxypiperidino)-pyridine acid maleate]	0%	0%	0%					-50%
OC1CCN(c2ncc(-c3cccc(Cl)c3)cn2)CC1 [SR 42 922, 5-(3-chlorophenyl)-2-(4-hydroxypiperidino)pyrimidine]	0%	0%	0%					

Source: patent publication US4613603A, “Compounds with a nitrogen-containing heterocyclic nucleus, and drugs in which they are present” (Sanofi, priority 1984, dated 1986)
